Measured values reported in patent US20250163056A1, “NONMUSCLE MYOSIN II INHIBITORS” (The University of Florida Research Foundation, Inc., priority 2018, published 2025).
pKi: −log10 of the molar value.

Key:
Rabbit skeletal myosin = assay: Skeletal muscle myosin II actin-activated ATPase assay; type: biochemical; conditions: 20 nM skeletal muscle myosin II; read-out: SKMMII KI
Description: (§1) The cardiac muscle myosin II actin-activated ATPase assay is a biochemical assay. Specifically, it is an NADH (nicotinamide adenine dinucleotide)-coupled ATPase assay that relies on NADH fluorescence as a readout. Cardiac myosin is a mechanochemical energy transducer that hydrolyzes ATP to generate force in the presence of its activator, F-actin. The resulting ADP is regenerated to ATP by pyruvate kinase (PK) that transforms one molecule of phosphoenolpyruvate (PEP) to pyruvate in parallel. Subsequently, pyruvate is reduced to lactate by lactate dehydrogenase (LDH) that, in turn, oxidizes one molecule of NADH to NAD. Therefore, the decrease in NADH concentration as a function of time equals the ATP hydrolysis rate. Bovine cardiac myosin is obtained from a commercial source, Cytoskeleton. PK, LDH, ATP, PEP, and NADH are obtained from Sigma. F-actin is prepared in house from Rabbit Muscle Acetone Powder. The assay is run at 25° C. in 384 well black-wall polystyrene microplates with a total volume of 20 μl per well. NADH fluorescence is monitored for 30 minutes with an EnVision Multimode Plate Reader. The slope of the fluorescence response, which is proportional to the reaction rate, is determined by simple linear regression. Final assay conditions are 300 nM cardiac myosin, 10 μM actin, 40 U/ml LDH, 200 U/ml PK, 220 μM NADH, 1 mM PEP, 1 mM ATP in a buffer containing 10 mM 3-(N-morpholino)propanesulfonic acid (pH=7.0), 2 mM MgCl2, 0.15 mM ethylene glycol-bis(p-aminoethyl ether)-N,N,N′,N′-tetraacetic acid, 0.1 mg/mL bovine serum albumin, 0.5% (V/V) dimethyl sulfoxide (DMSO) and 1 mM dithiothreitol. Prior to testing the inhibitory activity of the compounds, a two-fold dilution series starting at 10 mM compound concentration is prepared in DMSO. Subsequently, 100 nl is transferred to each well of the measuring plate containing a mixture of myosin, LDH and PK. The enzymatic reaction is started with the addition of a mixture containing ATP, PEP, NADH and actin. The highest final compound concentration is 50 uM. 20 μM para-aminoblebbistatin in 0.5% DMSO serves as the positive control and 0.5% DMSO alone is the negative control. Reaction rates are determined by using the fluorescence responses of a dilution series of NADH included in all plates and plotted as a function of inhibitor concentration. All measurements are carried out in triplicate. Inhibitory constants are determined by fitting the 16 point dose-response data to a quadratic equation corresponding to a simple one-to-one binding model.
The skeletal muscle myosin II actin-activated ATPase assay is performed the same as for cardiac muscle myosin II with the following exceptions: Rabbit skeletal myosin is obtained from Cytoskeleton and the final assay conditions contain 20 nM skeletal muscle myosin II.

Bovine cardiac myosin = Bovine cardiac myosin (Bos taurus (Bovine), UniProt Q9BE39); assay: Cardiac muscle myosin II actin-activated ATPase assay (NADH-coupled); type: biochemical; design: key to Ratio CMMII:NMII Ki/EC50: NMII-sel: no Ki value for cardiac myosin II could be determined; the compounds had no detectable inhibitory properties versus the cardiac myosin II; conditions: for Ratio CMMII:NMII Ki/EC50: cardiac myosin II Ki over nonmuscle myosin II EC50; for pKi: 300 nM cardiac myosin, 10 μM actin, 25° C., read-out: CMMII KI
Chain of Bovine cardiac myosin (Q9BE39 whole entry): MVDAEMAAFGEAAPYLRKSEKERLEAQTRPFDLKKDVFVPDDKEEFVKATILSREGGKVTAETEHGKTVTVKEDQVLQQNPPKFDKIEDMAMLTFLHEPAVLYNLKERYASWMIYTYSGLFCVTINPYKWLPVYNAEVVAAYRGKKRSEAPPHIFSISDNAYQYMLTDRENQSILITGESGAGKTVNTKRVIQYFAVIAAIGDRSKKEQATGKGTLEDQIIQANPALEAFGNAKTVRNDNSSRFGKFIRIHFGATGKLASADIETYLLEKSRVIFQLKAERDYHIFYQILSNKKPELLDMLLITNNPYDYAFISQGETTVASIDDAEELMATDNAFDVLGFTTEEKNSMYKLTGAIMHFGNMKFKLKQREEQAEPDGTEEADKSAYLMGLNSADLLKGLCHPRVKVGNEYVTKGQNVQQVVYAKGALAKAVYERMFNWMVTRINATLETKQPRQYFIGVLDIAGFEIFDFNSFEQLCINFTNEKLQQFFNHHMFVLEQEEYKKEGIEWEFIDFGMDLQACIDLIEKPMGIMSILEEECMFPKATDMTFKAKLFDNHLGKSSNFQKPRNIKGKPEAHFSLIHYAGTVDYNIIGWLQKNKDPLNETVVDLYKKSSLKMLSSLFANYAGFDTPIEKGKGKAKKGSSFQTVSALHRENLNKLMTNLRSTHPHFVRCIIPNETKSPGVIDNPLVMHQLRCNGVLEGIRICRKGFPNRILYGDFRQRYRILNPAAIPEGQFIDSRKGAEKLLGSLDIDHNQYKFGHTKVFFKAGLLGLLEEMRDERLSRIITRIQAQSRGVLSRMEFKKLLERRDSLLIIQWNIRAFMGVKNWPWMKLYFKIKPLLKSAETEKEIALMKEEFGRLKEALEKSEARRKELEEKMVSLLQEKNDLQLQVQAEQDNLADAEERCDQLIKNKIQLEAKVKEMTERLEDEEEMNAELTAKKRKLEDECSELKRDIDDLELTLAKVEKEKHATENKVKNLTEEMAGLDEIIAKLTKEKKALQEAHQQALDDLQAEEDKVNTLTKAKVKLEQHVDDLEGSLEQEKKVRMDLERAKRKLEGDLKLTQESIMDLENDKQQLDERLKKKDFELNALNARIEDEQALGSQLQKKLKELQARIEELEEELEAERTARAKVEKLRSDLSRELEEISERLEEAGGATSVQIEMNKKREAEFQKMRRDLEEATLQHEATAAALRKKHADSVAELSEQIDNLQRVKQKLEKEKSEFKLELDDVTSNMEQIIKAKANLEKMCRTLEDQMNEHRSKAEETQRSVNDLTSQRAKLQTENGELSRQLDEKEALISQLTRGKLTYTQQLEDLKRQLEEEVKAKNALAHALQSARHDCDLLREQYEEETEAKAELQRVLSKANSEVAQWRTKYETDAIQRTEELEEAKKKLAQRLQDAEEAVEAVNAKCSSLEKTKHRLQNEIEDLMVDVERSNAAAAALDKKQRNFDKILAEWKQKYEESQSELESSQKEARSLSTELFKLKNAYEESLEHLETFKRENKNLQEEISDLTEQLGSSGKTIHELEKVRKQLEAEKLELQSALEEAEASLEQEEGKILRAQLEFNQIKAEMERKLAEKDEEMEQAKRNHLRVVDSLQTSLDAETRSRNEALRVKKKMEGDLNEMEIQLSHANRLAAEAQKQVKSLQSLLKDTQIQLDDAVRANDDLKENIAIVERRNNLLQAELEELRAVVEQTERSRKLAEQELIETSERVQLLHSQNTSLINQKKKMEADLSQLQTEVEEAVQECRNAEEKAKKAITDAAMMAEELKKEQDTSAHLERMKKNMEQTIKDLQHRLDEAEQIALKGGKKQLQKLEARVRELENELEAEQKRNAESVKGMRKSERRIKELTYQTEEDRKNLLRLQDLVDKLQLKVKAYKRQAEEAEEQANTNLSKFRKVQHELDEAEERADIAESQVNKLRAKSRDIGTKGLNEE
Chain of Bovine cardiac myosin (P85100 whole entry partner): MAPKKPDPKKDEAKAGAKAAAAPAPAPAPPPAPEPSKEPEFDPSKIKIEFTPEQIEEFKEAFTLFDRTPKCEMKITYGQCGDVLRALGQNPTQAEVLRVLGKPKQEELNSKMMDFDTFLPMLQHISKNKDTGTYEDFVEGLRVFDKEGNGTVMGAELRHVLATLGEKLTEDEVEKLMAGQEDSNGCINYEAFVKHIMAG
Chain of Bovine cardiac myosin (Q3SZE5 whole entry partner): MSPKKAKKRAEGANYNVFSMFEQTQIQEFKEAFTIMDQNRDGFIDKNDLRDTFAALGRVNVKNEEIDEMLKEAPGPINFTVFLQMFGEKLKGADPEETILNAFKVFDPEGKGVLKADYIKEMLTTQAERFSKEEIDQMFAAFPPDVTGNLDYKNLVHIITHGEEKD
Description: as §1

[1] = Photostability, percentage remaining undegraded under illumination or in the dark; conditions: for Photostability 4 hours: percentage remaining undegraded after 4 hours illumination; for Photostability 24 hours: percentage remaining undegraded after 24 hours illumination; for Photostability Dark (24 h): percentage remaining undegraded in the dark

| Compound | pKi (Rabbit skeletal myosin) | Ratio CMMII:NMII Ki/EC50 (Bovine cardiac myosin) | Photostability 4 hours [1] | Photostability 24 hours [1] | Photostability Dark (24 h) [1] | pKi (Bovine cardiac myosin) |
| --- | --- | --- | --- | --- | --- | --- |
| Cc1cc(N2CC[C@@]3(O)C(=O)c4cc(Cl)ccc4N=C23)ccc1C#N [BPN-0026457] | 4.82 | NMII-sel | 98.6% | 77.1% | >99% |  |
| O=C1c2cc(C(F)(F)F)ccc2N=C2N(c3ccc4ccoc4c3)CC[C@@]12O [BPN-0026495] | 4.70 | NMII-sel | 80.9% | 15.9% | 93.4% |  |
| COc1cc(N2CC[C@@]3(O)C(=O)c4cc(C(F)(F)F)ccc4N=C23)ccn1 [BPN-0026533] | 4.22 | NMII-sel | 87.7% | 6.4% | 91.7% |  |
| O=C1c2cc(C(F)(F)F)ccc2N=C2N(c3ccc(Cl)cc3)CC[C@@]12O [BPN-0026544] | 5.32 | NMII-sel | 51.1% | 10.8% | 93.7% |  |
| O=C1c2cc(Cl)ccc2N=C2N(c3ccc4ccsc4c3)CC[C@@]12O [BPN-0026545] | 4.92 | NMII-sel | 89.4% | 5.1% | >99% |  |
| O=C1c2cc(Cl)ccc2N=C2N(c3ccc4sccc4c3)CC[C@@]12O [BPN-0026546] | 4.66 | NMII-sel | 81.2% | 12.5% | 93.5% |  |
| N#Cc1ccc(N2CC[C@@]3(O)C(=O)c4cc(C(F)(F)F)ccc4N=C23)cc1 [BPN-0026608] | 5.77 | 11.6 | 86.7% | <1% | 97.5% | 4.30 |
| Cc1cc2c(cc1F)C(=O)[C@]1(O)CCN(c3ccc4ccoc4c3)C1=N2 [BPN-0026619] | 5.60 | 22.5 | 77.4% | <1% | 91.0% | 4.44 |
| COc1cc(N2CC[C@@]3(O)C(=O)c4cc(Cl)ccc4N=C23)ccn1 [BPN-0026621] | 5.47 | 7.0 | 93.3% | 61.4% | 93.5% | 4.40 |

Further lines, results first:

| pKi (Rabbit skeletal myosin) | Ratio CMMII:NMII Ki/EC50 (Bovine cardiac myosin) | Photostability 4 hours [1] | Photostability 24 hours [1] | Photostability Dark (24 h) [1] | pKi (Bovine cardiac myosin) | Compound |
| --- | --- | --- | --- | --- | --- | --- |
| 4.82 | 31.9 | 41.7% | 3.5% | 97.9% | 4.08 | COc1cccc(N2CC[C@@]3(O)C(=O)c4cc(C)c(C)cc4N=C23)c1 [BPN-0026496] |
| 5.01 | 15.7 | 82.7% | 6.1% | 97.5% | 4.48 | COc1cccc(N2CC[C@@]3(O)C(=O)c4cc(C)c(C)cc4N=C23)c1 [BPN-0026497] |
| 6.74 | 12.4 | 97.7% | 84.9% | >99% | 5.24 | Cc1cc2c(cc1C)C(=O)[C@]1(O)CCN(c3ccc(C#N)cc3)C1=N2 [BPN-0026499] |
| 4.64 | NMII-sel | 92.2% | 22.8% | >99% |  | Cc1cc2c(cc1C)C(=O)[C@]1(O)CCN(c3cccc(Cl)c3)C1=N2 [BPN-0026500] |
| 5.34 | 3.3 | 98.6% | >99% | >99% | 4.74 | Cc1cc2c(s1)N=C1N(c3ccc(C#N)c(C)c3)CC[C@@]1(O)C2=O [BPN-0026576] |
| 6.43 | 5.0 | 77.3% | 8.5% | 93.7% | 5.30 | Cc1ccc(N2CC[C@@]3(O)C(=O)c4cc(F)c(C)cc4N=C23)cc1 [BPN-0026579] |
| 6.54 | 15.0 | 69.6% | 2.3% | 94.2% | 4.82 | COc1ccc(N2CC[C@@]3(O)C(=O)c4cc(F)c(C)cc4N=C23)cc1 [BPN-0026605] |
| 5.24 | NMII-sel | 98.5% | 84.7% | 98.1% |  | Cc1ccc(N2CC[C@@]3(O)C(=O)c4cc(F)c(C)cc4N=C23)cc1C [BPN-0026607] |
| 5.23 | 3.8 | 92.3% | 17.2% | 96.6% | 4.74 | COc1cccc(N2CC[C@@]3(O)C(=O)c4cc(F)c(C)cc4N=C23)c1 [BPN-0026618] |
| 4.80 | NMII-sel | 94.1% | 27.8% | 92.8% |  | Cc1cccc(N2CC[C@@]3(O)C(=O)c4cc(F)c(C)cc4N=C23)c1 [BPN-0026620] |
| 4.62 | 14.0 | 90.5% | 88.2% | 92.2% | 3.68 | Cc1cc2c(s1)N=C1N(c3cccc(Br)c3)CC[C@@]1(O)C2=O [BPN-0026624] |
| 6.43 | 7.1 | 87.9% | 71.9% | 91.6% | 4.92 | Cc1cc2c(cc1F)C(=O)[C@]1(O)CCN(c3ccc(C#N)cc3)C1=N2 [BPN-0026638] |
| 5.96 | 4.2 | 89.8% | 49.5% | >99% | 4.85 | Cc1cc2c(s1)N=C1N(c3ccc4ccoc4c3)CC[C@@]1(O)C2=O [BPN-0026639] |
